Several values for one entry are separate records, joined by “and”; a condition that tells them apart may be missing. Identical values can stand only once.
What was measured:
s.c. HeLa tumors = assay: Fluorescence imaging of varying sizes of s.c. HeLa tumors; type: in vivo, mice; conditions: P-CyPt 100 μM, 200 μL i.v., 4 h
Procedure: page 21: Supplementary Figure 29. Fluorescence imaging of varying sizes of s.c. HeLa tumors in mice. (a) Representative fluorescence images of mice with s.c. HeLa tumors at a mean size of 3.8 ± 0.8, 22.1 ± 1.6, 46.4 ± 4.2, 75.9 ± 4.5 and 125.5 ± 12.7 mm3, respectively. […]) was i.v. injected into mice, and the whole-body fluorescence images were acquired at 0 and 4 h. Red arrows indicate the locations of tumors, and the black circle indicates the position chosen for the background in each mouse. (b) Calculated SBR in mice of different tumor sizes. […] Data denote mean ± s.d. (n = 3 independent animals). […] 21 (1 picture or pasted object on this page, not shown here)

ALP [1] = molecular target: T1, ALP (Bos taurus, UniProt P19111); assay: Enzyme kinetics of P-CyPt towards ALP (Lineweaver-Burk); type: biochemical; conditions: ALP (20 U/L)
T1 construct: Alkaline phosphatase from bovine; purchased Sigma-Aldrich; host or cells: bovine intestinal mucosa (tissue-derived)
T1 sequence (P19111 20-533): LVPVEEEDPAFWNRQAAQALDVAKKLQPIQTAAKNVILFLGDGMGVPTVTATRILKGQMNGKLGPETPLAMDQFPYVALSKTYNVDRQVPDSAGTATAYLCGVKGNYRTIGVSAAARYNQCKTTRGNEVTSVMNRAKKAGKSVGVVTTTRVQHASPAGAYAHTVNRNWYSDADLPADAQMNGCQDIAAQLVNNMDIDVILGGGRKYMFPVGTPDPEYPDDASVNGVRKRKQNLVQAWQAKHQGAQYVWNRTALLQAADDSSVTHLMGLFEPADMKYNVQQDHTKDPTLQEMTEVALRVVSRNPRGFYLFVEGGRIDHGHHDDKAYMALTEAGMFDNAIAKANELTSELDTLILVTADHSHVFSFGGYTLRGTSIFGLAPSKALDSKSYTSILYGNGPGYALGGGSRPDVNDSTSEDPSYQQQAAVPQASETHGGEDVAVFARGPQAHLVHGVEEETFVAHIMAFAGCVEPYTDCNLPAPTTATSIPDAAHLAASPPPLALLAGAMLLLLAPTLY

ALP [2] = assay: as above; type: biochemical; conditions: Supplementary Fig. 5b; for 1/v, mean: mean of 3 samples
ALP [3] = assay: Specificity of P-CyPt towards ALP (Trypsin, MMP-2, GGT, CTB, Caspase-3, ALP, ALP + Na3VO4); type: biochemical; conditions: for Normalized FL intensity at 710 nm, single replicate: individual replicates; for Normalized FL intensity at 710 nm, single replicate / Normalized FL intensity at 710 nm, mean: Supplementary Fig. 7b
HeLa cells = assay: Distribution of Pt element in subcellular organelles (ICP-OES); type: cell-based
Procedure: Supplementary Table 3. Comparison of the distribution of Pt element in different subcellular organelles between P-CyPt and CDDP. a Subcellular Amount of Pt distributed in a Percentage of Pt distributed in organelles single cell’s organelle (fmol) b a single cell’s organelle (%) c […]
a HeLa cells were incubated with P-CyPt or CDDP (10 μM) for 1 h. After that, the cells were washed with PBS for three times, replaced with blank medium and cultured for another 24 h. The cells were trypsinized, collected, and the cell numbers were counted.
The cell pellets were dispersed in PBS buffer, lysed via ultrasound sonication, and centrifuged at different speed to separate membrane, nucleus, lysosome together with mitochondria, and cytoplasm. The concentration of Pt element in each organelle fraction was then measured by ICP-OES. Values denote mean ± s.d. (n = 3 independent […]
b The amount of Pt in a single HeLa cell’s subcellular organelle was calculated by dividing the total amount of Pt element in different subcellular organelles to the cell […]
c Percentage of Pt distributed in a single HeLa cell’s subcellular organelles was calculated by dividing the amount of Pt in a single cell’s subcellular organelles by the amount of Pt in a single cell (sum of organelles). […]
For Pt distribution analysis, the cells were treated with P-CyPt (10 μM) or CDDP (10 μM) for 1 h, and then washed with PBS for three times, followed by incubation with fresh medium for another 24 h. After that, cells were washed gently with 2 mL PBS once. The cells were trypsinized, centrifuged and counted. The cell lysates were separated according to a reported fragmentation procedure to obtained different cell fractions, including N (nuclei), M (plasma membrane), L (lysosomes and mitochondria) and C (cytosol). The Cells and different cell fractions were digested with concentrated HNO3 (65~70%) and HCl (36~38%) at 90 °C for 24 h. The solution was diluted to 5 mL 2% HNO3 and 5% HCl solution, and the concentration of Pt element was measured by ICP-OES, which was further applied to calculate the amount of Pt in cells and subcellular organelles. […]
The count number for each flow cytometry analysis was ~5000 to 10000, and the data was processed using FlowJo software.
Evaluation of the ability to break DNA double strand. Supercoiled pBR322 plasmi d DNA (20 ng μL–1) was incubated with blank Tris buffer (i) or Tris buffer containing GSH (2 mM, ii), Tris buffer containing CDDP (100 μM, iii), Tris buffer containing GSH (2 mM) and CDDP (100 μM, iv), Tris buffer containing P-CyPt (100 μM, v), Tris buffer containing P-CyPt (100 μM) and GSH (2 mM, vi), Tris buffer containing P-CyPt (100 μM) and ALP (500 U/L, vii), and Tris buffer containing P-CyPt (100 μM), ALP (500 U/L) and GSH (2 mM, viii) or incubated with P-CyPt ((0, 1, 2, 5, 10, 20, 50 and 100 μM, from i-viii) respectively in the presence of ALP (500 U/L), followed by incubation with GSH (2 mM) in Tris buffer) at 37 °C for 16 h. Then, the reactions (10 μL) were quenched by loading buffer (2 μL, including 30 mM EDTA, 36% glycerol, 0.05% xylene cyanol FF, and 0.05% bromophenol blue). The resulting solutions and 1kb-I DNA ladder (GsDL10001) were loaded into native agarose gel (1%) and subjected to electrophoresis in a TAE buffer (40 mM Tris acetate, 1 mM EDTA). The

[4] = Cytoplasm (C), individual samples
[5] = Cytoplasm (C), mean of 3 samples
[6] = HeLa, 10 μM 1 h, then blank medium 24 h
[7] = Membrane(M), individual samples
[8] = Mito&Lyso (L), individual samples
[9] = Mito&Lyso (L), mean of 3 samples
[10] = Nucleus (N), individual samples

CC1(C)C(/C=C/C2=C3Oc4cc(OP(=O)(O)O)c(Cl)cc4C=C3CCC2)=[N+](CCCNC(=O)[C@@H](Cc2ccccc2)NC(=O)[C@@H](Cc2ccccc2)NC(=O)CCC(=O)[O][Pt]([NH2])([NH2])([OH])([Cl])[Cl])c2ccccc21 [P-CyPt]
size of s.c. HeLa tumors still detected by NIR FL imaging (s.c. HeLa tumors): 3.8 ± 0.8 mm^3 | Vmax (ALP [1]): 0.55 µM/min | Km (ALP [1]; P-CyPt 0.5-5.0 μM): 14 µM | 1/v, single samples (sample-1 to sample-3) (ALP [2]; 1/S [μM] 0.2): 7.131 min/µM and 6.758 min/µM and 6.78 min/µM | 1/v, mean (ALP [2]; 1/S [μM] 0.2): 6.889 min/µM | 1/v, single samples (sample-1 to sample-3) (ALP [2]; 1/S [μM] 0.25): 8.023 min/µM and 8.58 min/µM and 6.977 min/µM | 1/v, mean (ALP [2]; 1/S [μM] 0.25): 7.860 min/µM | 1/v, single samples (sample-1 to sample-3) (ALP [2]; 1/S [μM] 0.333333): 10.0959 min/µM and 10.7285 min/µM and 10.3072 min/µM | 1/v, mean (ALP [2]; 1/S [μM] 0.333333): 10.377 min/µM | 1/v, single samples (sample-1 to sample-3) (ALP [2]; 1/S [μM] 0.5): 12.1342 min/µM and 13.921 min/µM and 15.7076 min/µM | 1/v, mean (ALP [2]; 1/S [μM] 0.5): 13.921 min/µM | 1/v, single samples (sample-1 to sample-3) (ALP [2]; 1/S [μM] 1): 22.8038 min/µM and 25.6597 min/µM and 28.5158 min/µM | 1/v, mean (ALP [2]; 1/S [μM] 1): 25.660 min/µM | 1/v, single samples (sample-1 to sample-3) (ALP [2]; 1/S [μM] 2): 49.1562 min/µM and 54.4739 min/µM and 57.4911 min/µM | 1/v, mean (ALP [2]; 1/S [μM] 2): 53.707 min/µM | Normalized FL intensity at 710 nm, single replicate (ALP [3]; Enzyme type: ALP+Na3VO4): 1.0416 and 1.0656 and 1.1392 | Normalized FL intensity at 710 nm, mean (ALP [3]; Enzyme type: ALP+Na3VO4, mean of 3 replicates): 1.082 | Normalized FL intensity at 710 nm, single replicate (ALP [3]; Enzyme type: ALP+PBS): 1.0305 and 1.3734 and 1.3861 | Normalized FL intensity at 710 nm, mean (ALP [3]; Enzyme type: ALP+PBS, mean of 3 replicates): 1.263 | Normalized FL intensity at 710 nm, single replicate (ALP [3]; Enzyme type: ALP): 7.7619 and 9.0065 and 9.1858 | Normalized FL intensity at 710 nm, mean (ALP [3]; Enzyme type: ALP, mean of 3 replicates): 8.651 | Normalized FL intensity at 710 nm, single replicate (ALP [3]; Enzyme type: CTB): 0.9991 and 1.017 and 1.1059 | Normalized FL intensity at 710 nm, mean (ALP [3]; Enzyme type: CTB, mean of 3 replicates): 1.041 | Normalized FL intensity at 710 nm, single replicate (ALP [3]; Enzyme type: GGT): 0.8869 and 1.0719 and 1.0726 | Normalized FL intensity at 710 nm, mean (ALP [3]; Enzyme type: GGT, mean of 3 replicates): 1.010 | Normalized FL intensity at 710 nm, single replicate (ALP [3]; Enzyme type: MMP-2): 0.9603 and 0.9824 and 1.1444 | Normalized FL intensity at 710 nm, mean (ALP [3]; Enzyme type: MMP-2, mean of 3 replicates): 1.029 | Normalized FL intensity at 710 nm, single replicate (ALP [3]; Enzyme type: Tris (buffer only)): 0.9358 and 0.9007 and 1.1635 | Normalized FL intensity at 710 nm, mean (ALP [3]; Enzyme type: Tris (buffer only), mean of 3 replicates): 1.000 | Normalized FL intensity at 710 nm, single replicate (ALP [3]; Enzyme type: Trypsin): 0.935 and 0.9815 and 1.0282 | Normalized FL intensity at 710 nm, mean (ALP [3]; Enzyme type: Trypsin, mean of 3 replicates): 0.982 | NIR fluorescence signal of P-CyPt after incubation with enzyme (Supplementary Fig. 7, enzyme types), individual replicates (ALP [3]; enzyme: Casepase-3, individual replicate values (n=3)): 1.0789 and 1.0855 and 1.1465 | NIR fluorescence signal of P-CyPt after incubation with enzyme (Supplementary Fig. 7, enzyme types), mean (ALP [3]; enzyme: Casepase-3, mean of 3 replicates): 1.104 | Amount of Pt in subcellular fraction (HeLa cells; [4]): 10.4601 fmol and 9.6958 fmol and 8.113 fmol | Distribution of Pt in subcellular fraction (HeLa cells; [4]): 43.0958% and 39.9467% and 33.4263% | Amount of Pt in subcellular fraction (HeLa cells; [5]): 9.42 fmol | Distribution of Pt in subcellular fraction (HeLa cells; [5]): 38.82% | Amount of Pt distributed in a single cell's organelle: Cytoplasm (HeLa cells; [6]): 9.42 ± 1.20 fmol | Amount of Pt distributed in a single cell's organelle: Lysosome & Mitochondria (HeLa cells; [6]): 6.34 ± 0.81 fmol | Amount of Pt distributed in a single cell's organelle: Membrane (HeLa cells; [6]): 1.46 ± 0.19 fmol | Amount of Pt distributed in a single cell's organelle: Nucleus (HeLa cells; [6]): 7.05 ± 0.90 fmol | Percentage of Pt distributed in a single cell's organelle: Cytoplasm (cytosol) (HeLa cells; [6]): 38.82% | Percentage of Pt distributed in a single cell's organelle: Lysosome & Mitochondria (HeLa cells; [6]): 26.11% and ~ 26.11% | Percentage of Pt distributed in a single cell's organelle: Membrane (HeLa cells; [6]): 6.02% | Percentage of Pt distributed in a single cell's organelle: Nucleus (HeLa cells; [6]): 29.05% and ~ 29.05% | Amount of Pt in subcellular fraction (HeLa cells; [7]): 0.7699 fmol and 1.266 fmol and 2.345 fmol | Distribution of Pt in subcellular fraction (HeLa cells; [7]): 3.1718% and 5.2172% and 9.6606% | Amount of Pt in subcellular fraction (HeLa cells; Membrane(M), mean of 3 samples): 1.46 fmol | Distribution of Pt in subcellular fraction (HeLa cells; Membrane(M), mean of 3 samples): 6.02% | Amount of Pt in subcellular fraction (HeLa cells; [8]): 6.19 fmol and 6.277 fmol and 6.546 fmol | Distribution of Pt in subcellular fraction (HeLa cells; [8]): 25.5012% and 25.8599% and 26.9676% | Amount of Pt in subcellular fraction (HeLa cells; [9]): 6.34 fmol | Distribution of Pt in subcellular fraction (HeLa cells; [9]): 26.11% | Amount of Pt in subcellular fraction (HeLa cells; [10]): 6.061 fmol and 7.285 fmol and 7.806 fmol | Distribution of Pt in subcellular fraction (HeLa cells; [10]): 24.9722% and 30.0159% and 32.1624% | Amount of Pt in subcellular fraction (HeLa cells; Nucleus (N), mean of 3 samples): 7.05 fmol | Distribution of Pt in subcellular fraction (HeLa cells; Nucleus (N), mean of 3 samples): 29.05%

— article PMC9925730, “Controlled sequential in situ self-assembly and disassembly of a fluorogenic cisplatin prodrug for cancer theranostics” (Nature Communications, 2023)
